Reference: patent US20260183295A1, “METHODS AND COMPOSITIONS FOR TREATING CANCER” (Onconova Therapeutics, Inc., priority 2022, published 2026)

Experiments:
NUAK1 = target: T1, NUAK1 (Homo sapiens, UniProt O60285); experiment: NUAK1 NanoBret; format: cell-based
T1 sequence (O60285 1-661): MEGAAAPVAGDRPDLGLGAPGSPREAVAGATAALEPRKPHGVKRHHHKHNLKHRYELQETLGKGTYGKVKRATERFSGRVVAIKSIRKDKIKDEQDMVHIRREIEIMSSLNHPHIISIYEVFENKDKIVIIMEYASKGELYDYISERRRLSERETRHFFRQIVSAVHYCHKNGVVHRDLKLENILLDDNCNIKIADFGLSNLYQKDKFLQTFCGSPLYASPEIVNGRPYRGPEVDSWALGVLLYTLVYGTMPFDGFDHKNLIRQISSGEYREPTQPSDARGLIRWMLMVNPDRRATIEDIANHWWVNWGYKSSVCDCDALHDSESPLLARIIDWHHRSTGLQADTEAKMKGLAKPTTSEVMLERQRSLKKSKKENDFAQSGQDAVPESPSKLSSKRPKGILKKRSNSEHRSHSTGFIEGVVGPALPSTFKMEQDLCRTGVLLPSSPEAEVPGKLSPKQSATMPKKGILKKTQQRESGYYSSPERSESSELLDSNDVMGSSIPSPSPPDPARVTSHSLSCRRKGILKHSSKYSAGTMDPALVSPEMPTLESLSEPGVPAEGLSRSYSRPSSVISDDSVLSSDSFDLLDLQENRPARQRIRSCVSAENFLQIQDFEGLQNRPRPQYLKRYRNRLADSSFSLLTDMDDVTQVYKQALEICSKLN

AAK1 = target: T2, AAK1 (Homo sapiens, UniProt Q2M2I8); experiment: CETSA-MS, MDA-MB-231 cell lysates; format: binding; settings: 2 μM and 20 μM
T2 construct: endogenous in cells; host or cells: MDA-MB-231
Experimental: (§1) Following treatment, cell lysates were thermally treated in a thermal gradient profile across a temperature range. Following the thermal shift, cell lysates were spun by centrifuge to pellet aggregate protein and the supernatant withdrawn. The supernatant was then denatured in buffer and heated to denature, reduce, and alkylate the supernatant proteins. Following heating and cooling to room temperature, cold acetone was added to the supernatant samples and proteins precipitated.
(§2) The intact cell protein samples and lysate protein samples were then digested and labeled for mass spectrometry analysis according to the manufacturer's recommended protocols. Digested and labeled protein samples were analyzed by mass spectrometry proteomic analysis and the resulting protein targets were analyzed and plotted.

TBK1 = target: T3, TBK1 (Homo sapiens, UniProt Q9UHD2); experiment: CETSA-MS, MDA-MB-231 cell lysates; format: binding; settings: 2 μM and 20 μM
T3 construct: endogenous in cells; host or cells: MDA-MB-231
Experimental: as §1, §2

CDK2 = target: T4, CDK2 (Homo sapiens, UniProt P24941); experiment: CETSA-MS, MDA-MB-231 cell lysates; format: binding; settings: 2 μM and 20 μM
T4 construct: endogenous in cells; host or cells: MDA-MB-231
Experimental: as §1, §2

ATAT1 = target: T5, ATAT1 (Homo sapiens, UniProt Q5SQI0); experiment: CETSA-MS, MDA-MB-231 cell lysates; format: binding; settings: 2 μM and 20 μM
T5 construct: endogenous in cells; host or cells: MDA-MB-231
T5 sequence (Q5SQI0 whole entry): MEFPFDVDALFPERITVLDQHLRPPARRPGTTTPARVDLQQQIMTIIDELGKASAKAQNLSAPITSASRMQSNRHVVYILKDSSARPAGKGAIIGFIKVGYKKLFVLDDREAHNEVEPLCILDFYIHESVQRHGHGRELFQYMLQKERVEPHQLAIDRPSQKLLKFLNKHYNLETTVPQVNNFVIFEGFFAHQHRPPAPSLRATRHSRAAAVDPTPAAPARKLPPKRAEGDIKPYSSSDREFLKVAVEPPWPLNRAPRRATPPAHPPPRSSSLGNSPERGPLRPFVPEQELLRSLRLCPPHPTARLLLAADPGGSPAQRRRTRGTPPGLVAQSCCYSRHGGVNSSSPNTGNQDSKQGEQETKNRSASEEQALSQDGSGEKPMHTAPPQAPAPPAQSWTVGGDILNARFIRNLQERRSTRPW
Experimental: as §1, §2

TFEB = target: T6, TFEB (Homo sapiens, UniProt P19484); experiment: CETSA-MS, MDA-MB-231 cell lysates; format: binding; settings: 2 μM and 20 μM
T6 construct: endogenous in cells; host or cells: MDA-MB-231
T6 sequence (P19484 whole entry): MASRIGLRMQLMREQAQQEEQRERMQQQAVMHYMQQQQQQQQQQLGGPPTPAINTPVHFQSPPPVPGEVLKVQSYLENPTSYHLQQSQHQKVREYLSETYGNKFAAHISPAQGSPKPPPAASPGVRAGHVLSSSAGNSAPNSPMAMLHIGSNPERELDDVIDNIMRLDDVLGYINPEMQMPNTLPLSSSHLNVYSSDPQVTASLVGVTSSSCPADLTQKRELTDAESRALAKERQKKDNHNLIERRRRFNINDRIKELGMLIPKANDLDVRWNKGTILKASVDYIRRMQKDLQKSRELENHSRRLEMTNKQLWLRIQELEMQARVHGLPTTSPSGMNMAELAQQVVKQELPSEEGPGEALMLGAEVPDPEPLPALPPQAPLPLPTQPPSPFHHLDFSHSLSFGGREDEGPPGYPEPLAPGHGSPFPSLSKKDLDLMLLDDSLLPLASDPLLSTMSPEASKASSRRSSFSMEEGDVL
Experimental: as §1, §2

MAP11 = target: T7, MAP11 (Homo sapiens, UniProt Q8WVR3); experiment: CETSA-MS, MDA-MB-231 cell lysates; format: binding; settings: 2 μM and 20 μM
T7 construct: endogenous in cells; host or cells: MDA-MB-231
T7 sequence (Q8WVR3 whole entry): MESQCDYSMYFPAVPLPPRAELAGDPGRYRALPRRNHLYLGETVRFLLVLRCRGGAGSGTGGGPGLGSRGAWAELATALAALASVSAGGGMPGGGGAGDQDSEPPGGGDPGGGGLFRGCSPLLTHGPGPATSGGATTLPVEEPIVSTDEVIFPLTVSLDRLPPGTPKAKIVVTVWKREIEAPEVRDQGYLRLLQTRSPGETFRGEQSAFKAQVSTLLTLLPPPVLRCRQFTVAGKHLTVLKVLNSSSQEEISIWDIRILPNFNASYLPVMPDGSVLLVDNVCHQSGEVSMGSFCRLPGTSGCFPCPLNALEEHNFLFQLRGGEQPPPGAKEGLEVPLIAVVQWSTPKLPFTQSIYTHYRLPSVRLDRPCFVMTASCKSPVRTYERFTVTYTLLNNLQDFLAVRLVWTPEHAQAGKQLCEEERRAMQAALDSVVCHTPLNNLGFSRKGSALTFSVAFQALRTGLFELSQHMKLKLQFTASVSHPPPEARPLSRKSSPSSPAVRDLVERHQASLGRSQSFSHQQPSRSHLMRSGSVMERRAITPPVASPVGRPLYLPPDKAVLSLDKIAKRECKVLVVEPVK
Experimental: as §1, §2

AURKA = target: T8, AURKA (Homo sapiens, UniProt O14965); experiment: CETSA-MS, MDA-MB-231 cell lysates; format: binding; settings: 2 μM and 20 μM
T8 construct: endogenous in cells; host or cells: MDA-MB-231
T8 sequence (O14965 whole entry): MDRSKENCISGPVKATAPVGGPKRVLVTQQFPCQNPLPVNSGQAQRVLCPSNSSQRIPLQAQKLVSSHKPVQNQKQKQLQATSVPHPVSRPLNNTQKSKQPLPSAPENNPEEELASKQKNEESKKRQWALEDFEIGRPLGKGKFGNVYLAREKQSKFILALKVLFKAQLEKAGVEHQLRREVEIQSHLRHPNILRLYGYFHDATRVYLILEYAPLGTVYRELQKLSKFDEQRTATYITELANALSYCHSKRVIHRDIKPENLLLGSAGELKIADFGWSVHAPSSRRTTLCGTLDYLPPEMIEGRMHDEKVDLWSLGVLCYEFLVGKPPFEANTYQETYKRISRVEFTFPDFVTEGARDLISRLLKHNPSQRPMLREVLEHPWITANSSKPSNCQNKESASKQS
Experimental: as §1, §2

EPHA2 = target: T9, EPHA2 (Homo sapiens, UniProt P29317); experiment: CETSA-MS, MDA-MB-231 cell lysates; format: binding; settings: 2 μM and 20 μM
T9 construct: endogenous in cells; host or cells: MDA-MB-231
T9 sequence (P29317 24-976): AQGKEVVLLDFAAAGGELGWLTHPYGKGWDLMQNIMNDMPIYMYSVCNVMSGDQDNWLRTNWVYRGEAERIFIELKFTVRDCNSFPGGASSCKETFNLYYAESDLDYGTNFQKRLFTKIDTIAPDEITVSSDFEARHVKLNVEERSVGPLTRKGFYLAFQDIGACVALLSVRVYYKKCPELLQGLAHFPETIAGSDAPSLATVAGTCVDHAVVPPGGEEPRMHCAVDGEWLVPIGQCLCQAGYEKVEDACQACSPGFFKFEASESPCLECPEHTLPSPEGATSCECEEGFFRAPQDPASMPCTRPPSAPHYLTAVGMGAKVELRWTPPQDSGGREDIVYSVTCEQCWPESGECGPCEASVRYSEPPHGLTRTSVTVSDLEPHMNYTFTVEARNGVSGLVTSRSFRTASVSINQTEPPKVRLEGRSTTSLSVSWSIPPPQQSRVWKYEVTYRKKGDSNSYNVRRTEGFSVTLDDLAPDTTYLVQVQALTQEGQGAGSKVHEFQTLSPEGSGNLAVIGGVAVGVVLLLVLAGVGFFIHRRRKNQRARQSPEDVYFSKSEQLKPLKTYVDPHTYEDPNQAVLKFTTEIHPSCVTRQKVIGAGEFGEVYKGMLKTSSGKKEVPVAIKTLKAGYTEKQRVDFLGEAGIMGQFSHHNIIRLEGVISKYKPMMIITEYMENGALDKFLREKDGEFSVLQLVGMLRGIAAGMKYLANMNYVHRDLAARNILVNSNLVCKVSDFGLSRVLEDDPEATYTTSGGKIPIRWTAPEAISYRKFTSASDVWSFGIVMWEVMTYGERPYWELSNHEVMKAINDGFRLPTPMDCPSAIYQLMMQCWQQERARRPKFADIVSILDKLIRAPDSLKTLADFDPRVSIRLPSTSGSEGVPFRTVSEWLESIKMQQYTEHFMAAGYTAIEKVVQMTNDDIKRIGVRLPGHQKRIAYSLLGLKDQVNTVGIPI
Experimental: as §1, §2

BMP2K = target: T10, BMP2K (Homo sapiens, UniProt Q9NSY1); experiment: CETSA-MS, MDA-MB-231 cell lysates; format: binding; settings: 2 μM and 20 μM
T10 construct: endogenous in cells; host or cells: MDA-MB-231
Experimental: as §1, §2

DGCR6 = target: T11, DGCR6 (Homo sapiens, UniProt Q14129); experiment: CETSA-MS, MDA-MB-231 cell lysates; format: binding; settings: 2 μM and 20 μM
T11 construct: endogenous in cells; host or cells: MDA-MB-231
T11 sequence (Q14129 whole entry): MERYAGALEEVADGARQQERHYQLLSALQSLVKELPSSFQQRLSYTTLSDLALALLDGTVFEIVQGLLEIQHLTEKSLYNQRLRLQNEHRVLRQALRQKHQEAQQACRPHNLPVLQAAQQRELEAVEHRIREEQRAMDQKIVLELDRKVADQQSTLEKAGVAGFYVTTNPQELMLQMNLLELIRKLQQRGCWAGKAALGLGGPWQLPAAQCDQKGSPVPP
Experimental: as §1, §2

CDK5 = target: T12, CDK5 (Homo sapiens, UniProt Q00535); experiment: CETSA-MS, MDA-MB-231 cell lysates; format: binding; settings: 2 μM and 20 μM
T12 construct: endogenous in cells; host or cells: MDA-MB-231
Experimental: as §1, §2

TGFBR2 = target: T13, TGFBR2 (Homo sapiens, UniProt P37173); experiment: CETSA-MS, MDA-MB-231 cell lysates; format: binding; settings: 2 μM and 20 μM
T13 construct: endogenous in cells; host or cells: MDA-MB-231
T13 sequence (P37173 23-567): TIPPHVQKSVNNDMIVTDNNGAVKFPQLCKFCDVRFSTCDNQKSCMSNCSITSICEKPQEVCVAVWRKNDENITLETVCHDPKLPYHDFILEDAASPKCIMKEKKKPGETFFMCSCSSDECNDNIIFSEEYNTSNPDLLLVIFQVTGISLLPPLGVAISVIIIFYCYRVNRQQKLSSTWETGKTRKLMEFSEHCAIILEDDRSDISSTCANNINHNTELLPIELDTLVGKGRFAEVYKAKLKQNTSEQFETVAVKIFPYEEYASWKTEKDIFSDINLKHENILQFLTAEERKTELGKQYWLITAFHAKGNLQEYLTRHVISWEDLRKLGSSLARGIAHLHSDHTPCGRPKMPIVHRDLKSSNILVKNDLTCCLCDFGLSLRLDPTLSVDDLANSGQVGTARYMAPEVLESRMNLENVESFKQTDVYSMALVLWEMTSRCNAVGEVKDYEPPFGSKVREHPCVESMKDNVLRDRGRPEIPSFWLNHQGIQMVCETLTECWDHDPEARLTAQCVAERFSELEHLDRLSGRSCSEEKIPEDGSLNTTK
Experimental: as §1, §2

MAPKAPK5 = target: T14, MAPKAPK5 (Homo sapiens, UniProt Q8IW41); experiment: CETSA-MS, MDA-MB-231 cell lysates; format: binding; settings: 2 μM and 20 μM
T14 construct: endogenous in cells; host or cells: MDA-MB-231
Experimental: as §1, §2

CHEK1 = target: T15, CHEK1 (Homo sapiens, UniProt O14757); experiment: CETSA-MS, MDA-MB-231 cell lysates; format: binding; settings: 2 μM and 20 μM
T15 construct: endogenous in cells; host or cells: MDA-MB-231
T15 sequence (O14757 1-476): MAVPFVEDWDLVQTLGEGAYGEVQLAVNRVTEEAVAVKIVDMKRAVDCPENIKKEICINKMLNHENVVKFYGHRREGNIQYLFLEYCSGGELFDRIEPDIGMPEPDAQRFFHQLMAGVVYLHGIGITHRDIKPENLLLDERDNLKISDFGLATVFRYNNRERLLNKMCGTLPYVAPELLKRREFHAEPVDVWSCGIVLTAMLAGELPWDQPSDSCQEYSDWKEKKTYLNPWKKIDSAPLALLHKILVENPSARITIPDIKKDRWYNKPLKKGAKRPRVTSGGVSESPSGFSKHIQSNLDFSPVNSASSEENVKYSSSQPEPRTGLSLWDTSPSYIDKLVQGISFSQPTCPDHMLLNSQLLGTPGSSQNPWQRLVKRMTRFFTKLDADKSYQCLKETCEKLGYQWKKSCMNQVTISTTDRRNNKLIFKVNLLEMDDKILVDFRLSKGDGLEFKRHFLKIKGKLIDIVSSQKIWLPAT
Experimental: as §1, §2

GSK3B = target: T16, GSK3B (Homo sapiens, UniProt P49841); experiment: CETSA-MS, MDA-MB-231 cell lysates; format: binding; settings: 2 μM and 20 μM
T16 construct: endogenous in cells; host or cells: MDA-MB-231
T16 sequence (P49841 whole entry): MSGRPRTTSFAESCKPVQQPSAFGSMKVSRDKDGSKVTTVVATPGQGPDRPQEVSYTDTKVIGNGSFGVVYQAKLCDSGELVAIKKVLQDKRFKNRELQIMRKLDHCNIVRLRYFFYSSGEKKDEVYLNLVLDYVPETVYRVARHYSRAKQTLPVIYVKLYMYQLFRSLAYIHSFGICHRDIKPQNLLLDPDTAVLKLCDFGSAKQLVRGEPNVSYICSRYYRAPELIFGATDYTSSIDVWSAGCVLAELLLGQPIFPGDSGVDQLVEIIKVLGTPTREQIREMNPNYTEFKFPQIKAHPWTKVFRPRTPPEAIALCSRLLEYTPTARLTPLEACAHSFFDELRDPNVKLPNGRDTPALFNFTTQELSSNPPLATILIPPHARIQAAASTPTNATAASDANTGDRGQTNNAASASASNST
Experimental: as §1, §2

STK17A = target: T17, STK17A (Homo sapiens, UniProt Q9UEE5); experiment: CETSA-MS, MDA-MB-231 cell lysates; format: binding; settings: 2 μM and 20 μM
T17 construct: endogenous in cells; host or cells: MDA-MB-231
T17 sequence (Q9UEE5 whole entry): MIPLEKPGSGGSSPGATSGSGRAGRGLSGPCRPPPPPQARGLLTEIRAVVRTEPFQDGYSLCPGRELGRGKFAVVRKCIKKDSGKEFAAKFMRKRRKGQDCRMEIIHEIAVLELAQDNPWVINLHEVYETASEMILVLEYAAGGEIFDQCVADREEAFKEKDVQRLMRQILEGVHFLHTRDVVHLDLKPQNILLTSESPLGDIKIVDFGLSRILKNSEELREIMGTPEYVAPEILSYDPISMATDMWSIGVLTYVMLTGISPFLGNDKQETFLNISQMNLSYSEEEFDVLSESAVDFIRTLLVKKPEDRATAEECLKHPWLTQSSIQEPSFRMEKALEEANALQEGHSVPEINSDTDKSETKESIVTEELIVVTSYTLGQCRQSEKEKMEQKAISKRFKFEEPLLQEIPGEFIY
Experimental: as §1, §2

SLK = target: T18, SLK (Homo sapiens, UniProt Q9H2G2); experiment: CETSA-MS, MDA-MB-231 cell lysates; format: binding; settings: 2 μM and 20 μM
T18 construct: endogenous in cells; host or cells: MDA-MB-231
Experimental: as §1, §2

GSK3A = target: T19, GSK3A (Homo sapiens, UniProt P49840); experiment: CETSA-MS, MDA-MB-231 cell lysates; format: binding; settings: 2 μM and 20 μM
T19 construct: endogenous in cells; host or cells: MDA-MB-231
T19 sequence (P49840 whole entry): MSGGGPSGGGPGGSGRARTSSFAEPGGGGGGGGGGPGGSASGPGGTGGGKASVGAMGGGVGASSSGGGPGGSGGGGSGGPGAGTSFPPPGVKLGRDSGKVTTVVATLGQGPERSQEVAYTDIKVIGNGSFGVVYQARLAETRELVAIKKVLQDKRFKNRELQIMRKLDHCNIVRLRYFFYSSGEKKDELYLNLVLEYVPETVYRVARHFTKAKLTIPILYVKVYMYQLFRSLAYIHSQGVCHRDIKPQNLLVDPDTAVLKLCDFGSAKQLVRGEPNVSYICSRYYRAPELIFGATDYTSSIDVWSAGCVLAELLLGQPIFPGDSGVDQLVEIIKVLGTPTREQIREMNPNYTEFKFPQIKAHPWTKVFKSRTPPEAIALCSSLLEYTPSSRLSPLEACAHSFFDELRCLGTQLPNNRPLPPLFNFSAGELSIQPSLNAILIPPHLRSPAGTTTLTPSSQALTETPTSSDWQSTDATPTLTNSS
Experimental: as §1, §2

PyMT cells = experiment: Annexin V/PI staining, apoptotic cells, 48 hours; format: cell-based, mouse; settings: compared to Comparator 1 (5 μM) and Comparator 3 (1 μM)
MDA-MB-231 cells = experiment: Wound healing assay (24 Hour Migration Assay); format: cell-based; settings: MDA-MB-231, 1.0 μM and 10.0 μM
Experimental: A cell-free area was created in a confluent monolayer by physical exclusion or by removing the cells from the area through mechanical, thermal or chemical damage. The exposure to the cell-free area induced the cells to migrate into the gap. The rate of gap closure was measured and plotted.

BRAF = experiment: Phosphoproteomic analysis, MDA-MB-231; format: cell-based; settings: 5 μM, 2 hours, T-test p<0,05
Experimental: Following treatment, a sample of each of the three treatments was analyzed by Western Blot for expression of phosphoprotein targets.
In addition to western blot analysis, the cell lysate samples underwent phosphoproteomic analysis.

CN1CCN(c2ccc(Nc3ncc4cc(C#N)c(=O)n(C5CCCC5)c4n3)cc2)CC1 [Compound 1, 8-cyclopentyl-2-((4-(4-methylpiperazin-1-yl)phenyl)amino)-7-oxo-7,8-dihydropyrido[2,3-d]pyrimidine-6-carbonitrile]
IC50 (NUAK1): 0.042 µM
Group (CETSA-MS thermal shift) (AAK1): Stabilization
Group (CETSA-MS thermal shift) (TBK1): Destabilization
Group (CETSA-MS thermal shift) (CDK2): Stabilization
Group (CETSA-MS thermal shift) (ATAT1): Stabilization
Group (CETSA-MS thermal shift) (TFEB): Stabilization
Group (CETSA-MS thermal shift) (MAP11): Stabilization
Group (CETSA-MS thermal shift) (AURKA): Stabilization
Group (CETSA-MS thermal shift) (EPHA2): Stabilization
Group (CETSA-MS thermal shift) (BMP2K): Stabilization
Group (CETSA-MS thermal shift) (DGCR6): Destabilization
Group (CETSA-MS thermal shift) (CDK5): Stabilization
Group (CETSA-MS thermal shift) (TGFBR2): Stabilization
Group (CETSA-MS thermal shift) (MAPKAPK5): Destabilization
Group (CETSA-MS thermal shift) (CHEK1): Destabilization
Group (CETSA-MS thermal shift) (GSK3B): Stabilization
Group (CETSA-MS thermal shift) (STK17A): Stabilization
Group (CETSA-MS thermal shift) (SLK): Stabilization
Group (CETSA-MS thermal shift) (GSK3A): Stabilization
number of apoptotic cells (Annexin V/PI) (PyMT cells): increased numbers of apoptotic cells
cell migration (rate of gap closure) (MDA-MB-231 cells): inhibited cell migration significantly more than Comparator 1
Significance (phosphopeptide target) (BRAF): significant
